Measurements reported in patent US20210161897A1, “EPIDERMAL GROWTH FACTOR RECEPTOR TYROSINE KINASE INHIBITORS FOR THE TREATMENT OF CANCER” (AstraZeneca AB, priority 2019, published 2021).

Tested on: PC9 xenograft tumours
Assay: PC9 xenograft antitumour efficacy and regrowth
Assay type: in vivo, female SCID mice
Experimental: PC9 xenograft tumours were established by subcutaneous implantation of 5×10^6 cells per animal, in 100 μl of cell suspension including 50% matrigel, into the dorsal left flank of female SCID mice. All mice were older than 6 weeks at the time of cell implant. Tumor growth was monitored twice weekly by bilateral calliper measurements and tumour volume calculated using elliptical formula (pi/6×width×width×length).
Mice were randomized into vehicle or treatment groups with approximate mean start size of 0.2 cm3. Randomization for animal studies was based on initial tumour volumes to ensure equal distribution across groups. Mice were dosed daily by oral gavage with vehicle or 25 mg/kg osimertinib or once weekly by intravenous with 25 mg/kg AZD2811 or with the combination of osimertinib and AZD2811. Note that all treatments were stopped on day 28. However, tumour growth was followed for approximately 200 additional days.

## C=CC(=O)Nc1cc(Nc2nccc(-c3cn(C)c4ccccc34)n2)c(OC)cc1N(C)CCN(C)C [osimertinib, N-(2-{2-dimethylaminoethyl-methylamino}-4-methoxy-5-{[4-(1-methylindol-3-yl)pyrimidin-2-yl]amino}phenyl) prop-2-enamide]
monotherapy, 25 mg/kg, osimertinib daily oral, AZD2811 once weekly intravenous
  tumour shrinkage during 4-week treatment: complete shrinkage
Osimertinib 25 mg/kg daily oral gavage for 28 days, then treatment stopped
  time at which tumour regrowth was observed: around 80 days
